Reference: PMC7009786 (ACS biomaterials science & engineering, 2018)

Key:
TOV-21G cells = test: Cell viability after 72 h incubation; format: cell-based; details: TOV-21G (Pt-sensitive), 56.6 μM, mean of N=3, Pt-NLS purity 87%
[1] = after 150 days; cited from earlier work
ES-2 cells = test: Cell viability after 72 h incubation; format: cell-based; details: ES-2 (Pt-sensitive), 18.4 μM, mean of N=3, Pt-NLS purity 87%
[2] = system: ovarian cancer-derived cell lines; format: cell-based

Question: What does the source list for N.N.O=C([O-])C1(C(=O)[O-])CCC1.[Pt+2] [carboplatin, Carboplatin]?
Answer: decrease of cell viability (TOV-21G cells): 40%; hydrolysed species [1]: 3%; decrease of cell viability (ES-2 cells): 20%

Question: For O=C1[O][Pt]2([NH][C@@H]3CCCC[C@H]3[NH]2)[O]C1=O [oxaliplatin], which hydrolysed species [1] is on record?
Answer: The hydrolysed species was 3%.

Question: For PKKKRKV [Pt-NLS hybrid], which “decrease of cell viability” value (TOV-21G cells) is on record?
Answer: Its value is ~ 50%.

Question: And the “decrease of cell viability” value (ES-2 cells)?
Answer: The value was ~ 30%.

Question: And the “cytotoxicity in vitro (in words)” value [2]?
Answer: Its value is “high cytotoxicity, significantly superior to carboplatin”.
